Measurements reported in patent US10597366B2, “Aryl ethers and uses thereof” (Peloton Therapeutics, Inc., priority 2013, dated 2020).
Like-named read-outs stand apart in the source and are kept apart here.

What was measured:
[1] = test system: HIF-2α HIS TAG-PASB Domain; experiment: HIF-2α Scintillation Proximity Assay (SPA); format: binding; details: compounds listed by structure and IUPAC name
Method: The percent inhibition was determined and IC50 values were calculated using the Dotmatics system based on the following equation: % inhibition=[(high control sample)/(high control low control)]×100.

[2] = test system: 786-O-Hif-Luc cells (luciferase gene driven by multiple HIF responsive elements); experiment: Luciferase Assay; format: cell-based; details: 24 h, read-out: Mean Luciferease EC50
Method: A pool of infected cells were then selected against 2 μg/mL of puromycin (P8833, Sigma) for 10 days followed by limited dilution to select single clones.
Each concentration was tested in triplicate. After about 24 hours, luciferase activity was determined using ONE-Glo Luciferase Assay Reagent (E6110, Promega) following the manufacturer's recommended procedure. EC50 were calculated by using Dotmatics software.

[3] = 786-O-Hif-Luc cells, about 24 hours

SMILES: O=[N+]([O-])c1c(F)cccc1Oc1cccc(Cl)c1 [1-(3-chlorophenoxy)-3-fluoro-2-nitro-benzene]
- IC50 [1]: > 100 µM

SMILES: CN(C)Cc1c(S(=O)(=O)C(F)F)ccc(Oc2cc(F)cc(Cl)c2)c1Cl [1-[2-chloro-3-(3-chloro-5-fluoro-phenoxy)-6-(difluoromethylsulfonyl)phenyl]-N,N-dimethyl-methanamine]
- IC50 [1]: > 100 µM

SMILES: O=S(=O)(c1ccc(Oc2cc(F)cc(Cl)c2)c(Cl)c1CNCC1CCOC1)C(F)F (centres unmarked) [1-[2-chloro-3-(3-chloro-5-fluoro-phenoxy)-6-(difluoromethylsulfonyl)phenyl]-N-(tetrahydrofuran-3-ylmethyl)methanamine]
- IC50 [1]: > 100 µM

SMILES: O=C(O)c1cc(S(=O)(=O)C(F)(F)F)ccc1Oc1cc(F)cc(Cl)c1 [2-(3-chloro-5-fluorophenoxy)-5-((trifluoromethyl)sulfonyl)benzoic acid]
- IC50 [1]: > 100 µM

SMILES: Cc1ccccc1Oc1ccc(S(=O)(=O)C(F)(F)F)cc1Br [2-bromo-1-(2-methylphenoxy)-4-(trifluoromethylsulfonyl)benzene]
- IC50 [1]: > 100 µM

SMILES: NC(=O)c1c(S(=O)(=O)C(F)F)ccc(Oc2cc(F)cc(Cl)c2)c1Br [2-bromo-3-(3-chloro-5-fluoro-phenoxy)-6-(difluoromethylsulfonyl)benzamide]
- IC50 [1]: > 100 µM

SMILES: NS(=O)(=O)c1ccc(Oc2cc(F)cc(F)c2)c2c1[C@H](O)C(F)(F)C2 [Compound 256, (S)-7-(3,5-Difluorophenoxy)-2,2-difluoro-3-hydroxy-2,3-dihydro-1H-indene-4-sulfonamide]
- EC50 [2]: 49 nM

SMILES: N#Cc1cc(F)cc(Oc2ccc(S(=N)(=O)C(F)(F)F)c3c2CCC3O)c1 (stereo not drawn) [Compound 258, 3-Fluoro-5-((1-hydroxy-7-(S-(trifluoromethyl)sulfonimidoyl)-2,3-dihydro-1H-inden-4-yl)oxy)benzonitrile]
- EC50 [2, 3]: 2100 nM

SMILES: O=S(=O)(c1ccc(Oc2cc(Cl)c[n+]([O-])c2)c2c1[C@H](O)C(F)(F)C2)C(F)(F)F [Compound 260, (S)-3-Chloro-5-((2,2-difluoro-1-hydroxy-7-((trifluoromethyl)sulfonyl)-2,3-dihydro-1H-inden-4-yl)oxy)pyridine 1-oxide]
- EC50 [2, 3]: 170 nM

SMILES: O=S(=O)(c1ccc(Oc2cc(F)c(F)c3[nH]ncc23)c2c1C(O)C(F)(F)C2)C(F)(F)F (centres unmarked) [Compound 261, 4-((6,7-Difluoro-1H-indazol-4-yl)oxy)-2,2-difluoro-7-((trifluoromethyl)sulfonyl)-2,3-dihydro-1H-inden-1-ol]
- EC50 [2, 3]: 1650 nM

SMILES: O=S(=O)(c1ccc(Oc2cccc3[nH]ncc23)c2c1[C@H](O)C(F)(F)C2)C(F)(F)F [Compound 263, (S)-4-((1H-Indazol-4-yl)oxy)-2,2-difluoro-7-((trifluoromethyl)sulfonyl)-2,3-dihydro-1H-inden-1-ol]
- EC50 [2, 3]: 780 nM

SMILES: O=S(=O)(c1ccc(Oc2c(F)ccc3[nH]ncc23)c2c1[C@H](O)C(F)(F)C2)C(F)(F)F [Compound 264, (S)-2,2-Difluoro-4-((5-fluoro-1H-indazol-4-yl)oxy)-7-((trifluoromethyl)sulfonyl)-2,3-dihydro-1H-inden-1-ol]
- EC50 [2, 3]: 2730 nM

SMILES: O=S(=O)(c1ccc(Oc2ccc(F)c3[nH]ncc23)c2c1[C@H](O)C(F)(F)C2)C(F)(F)F [Compound 266, (S)-2,2-difluoro-4-((7-fluoro-1H-indazol-4-yl)oxy)-7-((trifluoromethyl)sulfonyl)-2,3-dihydro-1H-inden-1-ol]
- EC50 [2, 3]: 30 nM

SMILES: CS(=O)(=O)c1ccc(Oc2cc(F)cc(C#N)c2)c2c1C(=O)C(F)(Cl)C2 (centres unmarked) [Compound 269, 3-((2-chloro-2-fluoro-7-(methylsulfonyl)-1-oxo-2,3-dihydro-1H-inden-4-yl)oxy)-5-fluorobenzonitrile]
- EC50 [2, 3]: 19400 nM

SMILES: CS(=O)(=O)c1ccc(Oc2cc(F)cc(C#N)c2)c2c1[C@H](O)C(F)(Cl)C2 (stereo partly drawn) [Compound 270, 3-(((1S)-2-chloro-2-fluoro-1-hydroxy-7-(methylsulfonyl)-2,3-dihydro-1H-inden-4-yl)oxy)-5-fluorobenzonitrile]
- EC50 [2, 3]: 100 nM

SMILES: CS(=O)(=O)c1ccc(Oc2cc(F)cc(C#N)c2)c2c1[C@H](O)[C@@H](F)C2 [Compound 271, 3-fluoro-5-(((1S,2S)-2-fluoro-1-hydroxy-7-(methylsulfonyl)-2,3-dihydro-1H-inden-4-yl)oxy)benzonitrile]
- EC50 [2]: 470 nM

SMILES: C[S+]([O-])c1ccc(Oc2cc(F)cc(C#N)c2)c2c1[C@H](O)C(F)(F)C2 (stereo partly drawn) [Compound 272, 3-[(1S)-2,2-Difluoro-1-hydroxy-7-methylsulfinyl-indan-4-yl]oxy-5-fluoro-benzonitrile]
- EC50 [2, 3]: 2280 nM

SMILES: CS(=O)(=O)c1ccc(Oc2cc(F)cc(C#N)c2)c2c1[C@H](O)[C@H](F)[C@@H]2F [Compound 289, 3-[(1S,2S,3R)-2,3-difluoro-1-hydroxy-7-methylsulfonyl-indan-4-yl]oxy-5-fluoro-benzonitrile]
- EC50 [2]: 4.2 nM

SMILES: N#Cc1cc(F)cc(Oc2ccc(S(=O)(=O)C(F)(F)F)c3c2CC(F)(F)[C@H]3N)c1 [Compound 290, 3-[(1S)-1-amino-2,2-difluoro-7-(trifluoromethylsulfonyl)indan-4-yl]oxy-5-fluoro-benzonitrile]
- EC50 [2]: 170 nM

SMILES: N#Cc1cc(F)cc(Oc2ccc(S(=O)(=O)C(F)(F)F)c3c2CC(F)(F)[C@H]3NCCO)c1 [Compound 291, 3-[(1S)-2,2-difluoro-1-(2-hydroxyethylamino)-7-(trifluoromethylsulfonyl)indan-4-yl]oxy-5-fluoro-benzonitrile]
- EC50 [2, 3]: 3100 nM

SMILES: CS(=O)(=O)c1ccc(Oc2cc(F)cc(C#N)c2)c2c1[C@H](O)C(F)(F)[C@H]2F [Compound 293, 3-fluoro-5-[(1S,3S)-2,2,3-trifluoro-1-hydroxy-7-methylsulfonyl-indan-4-yl]oxy-benzonitrile]
- EC50 [2, 3]: 780 nM

SMILES: CS(=O)(=O)c1ccc(Oc2cc(F)cc(C#N)c2)c2c1[C@H](O)[C@H](F)[C@H]2F [Compound 294, 3-[(1S,2S,3S)-2,3-difluoro-1-hydroxy-7-methylsulfonyl-indan-4-yl]oxy-5-fluoro-benzonitrile]
- EC50 [2, 3]: 1000 nM

SMILES: CS(=O)(=O)c1ccc(Oc2cc(F)cc(C#N)c2)c2c1[C@H](O)C[C@@H]2F [Compound 295, 3-fluoro-5-[(1R,3S)-3-fluoro-1-hydroxy-7-methylsulfonyl-indan-4-yl]oxy-benzonitrile]
- EC50 [2, 3]: 390 nM

SMILES: CS(=O)(=O)c1ccc(Oc2cc(F)cc(C#N)c2)c2c1[C@H](O)[C@H](F)[C@@H]2O [Compound 296, 3-fluoro-5-[(1S,2R,3R)-2-fluoro-1,3-dihydroxy-7-methylsulfonyl-indan-4-yl]oxy-benzonitrile]
- EC50 [2, 3]: 1300 nM

SMILES: C[C@@]1(F)Cc2c(Oc3cc(F)cc(C#N)c3)ccc(S(C)(=O)=O)c2[C@@H]1O [Compound 300, 3-fluoro-5-(((1S,2R)-2-fluoro-1-hydroxy-2-methyl-7-(methylsulfonyl)-2,3-dihydro-1H-inden-4-yl)oxy)benzonitrile]
- EC50 [2, 3]: 2800 nM

SMILES: C[C@@H]1Cc2c(Oc3cc(F)cc(C#N)c3)ccc(S(C)(=O)=O)c2[C@@H]1O [Compound 301, 3-fluoro-5-(((1R,2R)-1-hydroxy-2-methyl-7-(methylsulfonyl)-2,3-dihydro-1H-inden-4-yl)oxy)benzonitrile]
- EC50 [2, 3]: 2100 nM

SMILES: CS(=O)(=NC#N)c1ccc(Oc2cc(F)cc(C#N)c2)c2c1[C@H](O)[C@H](F)C2 (stereo partly drawn) [Compound 302, N-(((2R,3S)-7-(3-cyano-5-fluorophenoxy)-2-fluoro-3-hydroxy-2,3-dihydro-1H-inden-4-yl)(methyl)(oxo)-λ^6-sulfanylidene)cyanamide]
- EC50 [2, 3]: 110 nM

SMILES: CS(=O)(=O)c1ccc(Oc2cc(F)cc(C#N)c2)c2c1[C@H](O)C(F)(F)[C@@H]2O [Compound 312, 3-[(1S,3R)-2,2-difluoro-1,3-dihydroxy-7-methylsulfonyl-indan-4-yl]oxy-5-fluoro-benzonitrile]
- EC50 [2, 3]: 630 nM

SMILES: CS(=O)(=O)c1ccc(Oc2cncc(C#N)c2)c2c1[C@H](O)[C@H](F)C2 [Compound 313, 5-(((1S,2R)-2-fluoro-1-hydroxy-7-(methylsulfonyl)-2,3-dihydro-1H-inden-4-yl)oxy)nicotinonitrile]
- EC50 [2, 3]: 1100 nM

SMILES: N#Cc1cncc(Oc2ccc(S(=N)(=O)C(F)(F)F)c3c2CC(F)(F)[C@H]3O)c1 (stereo partly drawn) [Compound 314, 5-(((1S)-2,2-difluoro-1-hydroxy-7-(S-(trifluoromethyl)sulfonimidoyl)-2,3-dihydro-1H-inden-4-yl)oxy)nicotinonitrile]
- EC50 [2, 3]: 150 nM

SMILES: CS(=O)(=O)c1ccc(Oc2cncc(Br)c2)c2c1[C@H](O)C(F)(F)C2 [Compound 324, (S)-4-((5-Bromopyridin-3-yl)oxy)-2,2-difluoro-7-(methylsulfonyl)-2,3-dihydro-1H-inden-1-ol]
- EC50 [2, 3]: 480 nM

SMILES: N#Cc1cc(F)cc(Oc2ccc(S(N)(=O)=O)c3c2C[C@@H](F)[C@H]3O)c1 [Compound 334, (2R,3S)-7-(3-cyano-5-fluoro-phenoxy)-2-fluoro-3-hydroxy-indane-4-sulfonamide]
- EC50 [2, 3]: 220 nM

SMILES: N#Cc1cc(F)cc(Oc2ccc(S(N)(=O)=O)c3c2[C@@H](F)[C@@H](F)[C@H]3O)c1 [Compound 336, (1R,2S,3S)-7-(3-cyano-5-fluoro-phenoxy)-1,2-difluoro-3-hydroxy-indane-4-sulfonamide]
- EC50 [2, 3]: 67 nM

SMILES: N#Cc1cc(F)cc(Oc2ccc(S(N)(=O)=O)c3c2[C@@H](F)C(F)(F)[C@H]3O)c1 [Compound 338, (1R,3S)-7-(3-cyano-5-fluoro-phenoxy)-1,2,2-trifluoro-3-hydroxy-indane-4-sulfonamide]
- EC50 [2]: 6.1 nM

SMILES: N#Cc1cc(F)cc(Oc2ccc(S(N)(=O)=O)c3c2[C@H](F)C(F)(F)[C@H]3O)c1 [Compound 339, (1S,3S)-7-(3-cyano-5-fluoro-phenoxy)-1,2,2-trifluoro-3-hydroxy-indane-4-sulfonamide]
- EC50 [2]: 250 nM
